In the supplement of paper PMC9663587:

compound: COc1cc2nccc(Oc3ccc(NC(=O)C4(C(=O)Nc5ccc(F)cc5)CC4)cc3)c2cc1OC [Cabozantinib]
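Further: breast cancer and non-malignant breast epithelial cell lines, Deep Dye Drop or Dye Drop imaging, nine half-log doses, GR normalized to time-zero plates and DMSO-only controls.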

Compared with MDAMB361, MDAMB453 is lower in “GR50, 72 h” value: > 10 µM for the first, 9.71 µM for the second.

Compared with PDX1328, SUM185PE is 3.7-fold lower in “GR50, 72 h” value: 6.29 µM for the first, 1.71 µM for the second.

SUM190PT and UACC812 are within 1.5-fold of each other in “GR50, 72 h” value: 6.1 µM for the first, 5.86 µM for the second.

For UACC893, the “GR50, 72 h” value was > 10 µM.

compound: NC1(C(=O)N[C@@H](CCO)c2ccc(Cl)cc2)CCN(c2nc[nH]c3nccc2-3)CC1 [AZD5363]

Compared with CAL851, HCC1954 is lower in “GR50, 72 h” value: > 10 µM for the first, 3.06 µM for the second.

First: MDAMB175VII
Second: MDAMB330
The “GR50, 72 h” value of the first is 4-fold lower: 0.0495 µM for the first, 0.198 µM for the second.

Compared with MDAMB361, MDAMB453 is 2.4-fold higher in “GR50, 72 h” value: 0.654 µM for the first, 1.55 µM for the second.

First: PDX1328
Second: SUM185PE
The “GR50, 72 h” value of the first is higher: > 10 µM for the first, 8.7 µM for the second.

Compared with SUM190PT, UACC812 is 3.7-fold higher in “GR50, 72 h” value: 2.35 µM for the first, 8.81 µM for the second.

With UACC893 the “GR50, 72 h” value was 0.0291 µM.

compound: Cc1nc(NC(=O)N2CCC[C@H]2C(N)=O)sc1-c1ccnc(C(C)(C)C(F)(F)F)c1 [Alpelisib/BYL719]

Compared with CAL851, HCC1187 is higher in “GR50, 72 h” value: 3.64 µM for the first, > 10 µM for the second.

HCC1428 and HCC1500 cannot be ordered by “GR50, 72 h” value: > 10 µM for the first, > 10 µM for the second.

Compared with HCC1954, MDAMB157 is 7.9-fold higher in “GR50, 72 h” value: 1.23 µM for the first, 9.77 µM for the second.

First: MDAMB175VII
Second: MDAMB330
The “GR50, 72 h” value of the first is 7.8-fold lower: 0.154 µM for the first, 1.2 µM for the second.

Going from MDAMB361 to MDAMB453, the “GR50, 72 h” value rises from 0.223 µM to 0.538 µM (2.4-fold).

First: PDX1328
Second: SUM185PE
The “GR50, 72 h” value of the first is 4.9-fold higher: 1.57 µM for the first, 0.318 µM for the second.

First: SUM190PT
Second: UACC812
The “GR50, 72 h” value of the first is higher: > 10 µM for the first, 0.588 µM for the second.

With UACC893 the “GR50, 72 h” value was 0.419 µM.

compound: CC(C)Nc1cc(-c2c[nH]c(C(=O)N[C@H](CO)c3cccc(Cl)c3)c2)c(Cl)cn1 [BVD523]

Going from HCC1187 to HCC1954, the “GR50, 72 h” value falls from > 10 µM to 2.94 µM.

Going from MDAMB175VII to MDAMB330, the “GR50, 72 h” value rises from 0.255 µM to 7.45 µM (29-fold).

First: MDAMB361
Second: MDAMB453
The “GR50, 72 h” value of the first is 16-fold lower: 0.476 µM for the first, 7.79 µM for the second.

PDX1328 and SUM185PE cannot be ordered by “GR50, 72 h” value: > 10 µM for the first, > 10 µM for the second.

First: SUM190PT
Second: UACC812
The “GR50, 72 h” value of the first is 2.5-fold higher: 3.33 µM for the first, 1.32 µM for the second.

For UACC893, the “GR50, 72 h” value was 0.868 µM.

compound: CC1(CCN(CC1)C2=CN=C(C(=N2)N)C3=C(C(=CC=C3)Cl)Cl)N [SHP099]

CAL851 and HCC1187 cannot be ordered by “GR50, 72 h” value: > 10 µM for the first, > 10 µM for the second.

First: HCC1954
Second: MDAMB175VII
The “GR50, 72 h” value of the first is higher: > 10 µM for the first, 2.47 µM for the second.

MDAMB361 and MDAMB453 cannot be ordered by “GR50, 72 h” value: > 10 µM for the first, > 10 µM for the second.

PDX1328 and SUM185PE cannot be ordered by “GR50, 72 h” value: > 10 µM for the first, > 10 µM for the second.

SUM190PT and UACC812 cannot be ordered by “GR50, 72 h” value: > 10 µM for the first, > 10 µM for the second.

With UACC893 the “GR50, 72 h” value was > 10 µM.

compound: C1=CC(=CC(=C1)N2C(=O)C=CC3=CN=C4C=CC(=CC4=C32)C5=CN=C(C=C5)N)C(F)(F)F [Torin2]

In order of rising “GR50, 72 h” value:
1. HCC1500  0.00186 µM
2. MDAMB175VII  0.0022 µM
3. HCC1187  0.00305 µM
4. UACC812  0.00356 µM
5. MDAMB330  0.00492 µM
6. PDX1328  0.00494 µM
7. MDAMB361  0.00507 µM
8. SUM190PT  0.00524 µM
9. UACC893  0.00854 µM
10. MDAMB453  0.0086 µM
11. CAL851  0.00862 µM
12. HCC1954  0.0097 µM
13. SUM185PE  0.0124 µM
14. HCC1428  0.0128 µM
15. MDAMB157  0.0344 µM

compound: CCN1CCN(Cc2ccc(Nc3ncc(F)c(-c4cc(F)c5nc(C)n(C(C)C)c5c4)n3)nc2)CC1

In order of falling “GR50, 72 h” value:
1. SUM185PE  9.37 µM
2. MDAMB157  1.8 µM
3. CAL851  1.3 µM
4. HCC1500  0.479 µM
5. HCC1954  0.302 µM
6. PDX1328  0.0288 µM
7. SUM190PT  0.0206 µM
8. HCC1428  0.00979 µM
9. UACC893  0.00967 µM
10. MDAMB453  0.00577 µM
11. MDAMB361  0.00535 µM
12. UACC812  0.00485 µM
13. MDAMB330  0.00409 µM
14. MDAMB175VII  0.00292 µM

compound: CNC(=O)c1cccc(-c2ccc3c(N4CCOC[C@@H]4C)nc(N4CCOC[C@@H]4C)nc3n2)c1 [AZD2014]

Compared with CAL851, HCC1954 is 5.9-fold higher in “GR50, 72 h” value: 0.00819 µM for the first, 0.0484 µM for the second.

MDAMB175VII and MDAMB330 cannot be ordered by “GR50, 72 h” value: < 0.001 µM for the first, < 0.001 µM for the second.

Compared with MDAMB361, MDAMB453 is higher in “GR50, 72 h” value: < 0.001 µM for the first, 0.00364 µM for the second.

SUM185PE and SUM190PT are within 1.5-fold of each other in “GR50, 72 h” value: 0.00637 µM for the first, 0.00932 µM for the second.

UACC812 and UACC893 cannot be ordered by “GR50, 72 h” value: < 0.001 µM for the first, < 0.001 µM for the second.

compound: Cc1nn(C)c(COc2ccc(N3CCN(S(=O)(=O)N(C)C)CC3)cc2)c1-c1cccc2c(CCCOc3cccc4ccccc34)c(C(=O)O)n(CCN3CCOCC3)c12

CAL851 and HCC1187 cannot be ordered by “GR50, 72 h” value: > 10 µM for the first, > 10 µM for the second.

HCC1428 and HCC1500 cannot be ordered by “GR50, 72 h” value: > 10 µM for the first, > 10 µM for the second.

HCC1954 and MDAMB157 cannot be ordered by “GR50, 72 h” value: > 10 µM for the first, > 10 µM for the second.

MDAMB175VII and MDAMB330 cannot be ordered by “GR50, 72 h” value: > 10 µM for the first, > 10 µM for the second.

MDAMB361 and MDAMB453 cannot be ordered by “GR50, 72 h” value: > 10 µM for the first, > 10 µM for the second.

PDX1328 and SUM185PE cannot be ordered by “GR50, 72 h” value: > 10 µM for the first, > 10 µM for the second.

First: SUM190PT
Second: UACC812
The “GR50, 72 h” value of the first is lower: 6.86 µM for the first, > 10 µM for the second.

For UACC893, the “GR50, 72 h” value was > 10 µM.

compound: C1=CC2=C(C=CC(=C2)C=C3C(=O)NC(=NCC4=CC=CS4)S3)N=C1 [R0-3306]

In order of rising “GR50, 72 h” value:
1. CAL851  6.55 µM
2. HCC1954  6.63 µM
3. MDAMB330  7.54 µM
